From patent publication US6730790B2, “Chlorinated heterocyclic compounds and methods of synthesis” (R.T. Alamo Ventures I. LLC, priority 2002, dated 2004) come the findings set out here.

What all share (format): biochemical
Test [1] deals with T1, PDE1 partially purified from bovine heart (Bos taurus, UniProt P14100).
T1 construct: PDE1 partially purified from bovine heart was used; from tissue; host or cells: bovine heart
Put plainly: PDE1 enzyme inhibition assay ([3H]cAMP hydrolysis, scintillation counting). The source says: (§1) In this example, a racemic mixture of monochloroflosequinan and the sulfone derivative of monochloroflosequinan were independently subjected to biochemical enzyme assays to determine their respective percent inhibition of a variety of phosphodiesterases (PDE1-PDE6). The methods used have been adapted from those described in the scientific literature, see Hidaka and Asano “Human blood platelet 3′:5′ cyclic nucleotide phosphodiesterase. Isolation of low-Km and high Km phosphodiesterase.” Biochem. Biophys. Acta 429:485 (1976); Nicholoson et at. “Differential modulation of tissue function and therapeutic potential of selective inhibitors of cyclic nucleotide phosphodiesterase isoenzymes” Trends Pharmacol. Sci. 12:19 (1991); Cortijo et al. “Investigation into the role of phosphodiesterase IV in bronchorelaxation, including studies with hyman bronchus.” Br. J. Pharmacol. 108:562 (1993); Baehr et al. “Isolation and characterization of cGMP phosphodiesterase from bovine rod outer segments.” J. Biol. Chem. 254:11669 (1979) and Gillespie and Beavo “Inhibition and stimulation of photoreceptor phosphodiesterase by dipyridamole and M&B 22,948” Molecular Pharm. 36:773 (1989). […]
PDE1: PDE1 partially purified from bovine heart was used. […] Unhydrolyzed cAMP was bound to AGI-X2 resin, and the remaining [^3H]adenosine in the aqueous phase was quantitated by scintillation counting.

The target of test [2] is T2, PDE2 partially purified from human platelets (Homo sapiens, UniProt O00408).
T2 construct: PDE2 partially purified from human platelets was used; from tissue; host or cells: human platelets
Put plainly: PDE2 enzyme inhibition assay ([3H]cAMP hydrolysis, scintillation counting).
From the text: as §1
PDE2: PDE2 partially purified from human platelets was used. […] Unhydrolyzed cAMP was bound to AGI-X2 resin, and the remaining [^3H]adenosine in the aqueous phase was quantitated by scintillation counting.

In test [3] the target is T3, PDE3 partially purified from human platelets (Homo sapiens, UniProt Q14432).
T3 construct: PDE3 partially purified from human platelets was used; from tissue; host or cells: human platelets
Put plainly: PDE3 enzyme inhibition assay ([3H]cAMP hydrolysis, scintillation counting). The following applies: for IC50: varying concentrations 300-1 μM. The source says: In this example, a racemic mixture of monochloroflosequinan and the sulfone derivative of monochloroflosequinan were independently subjected to biochemical enzyme assays to determine their respective percent inhibition of a variety of phosphodiesterases (PDE1-PDE6). The methods used have been adapted from those described in the scientific literature, see Hidaka and Asano “Human blood platelet 3′:5′ cyclic nucleotide phosphodiesterase. Isolation of low-Km and high Km phosphodiesterase.” Biochem. Biophys. Acta 429:485 (1976); Nicholoson et at. “Differential modulation of tissue function and therapeutic potential of selective inhibitors of cyclic nucleotide phosphodiesterase isoenzymes” Trends Pharmacol. Sci. 12:19 (1991); Cortijo et al. “Investigation into the role of phosphodiesterase IV in bronchorelaxation, including studies with hyman bronchus.” Br. J. Pharmacol. 108:562 (1993); Baehr et al. “Isolation and characterization of cGMP phosphodiesterase from bovine rod outer segments.” J. Biol. Chem. 254:11669 (1979) and Gillespie and Beavo “Inhibition and stimulation of photoreceptor phosphodiesterase by dipyridamole and M&B 22,948” Molecular Pharm. 36:773 (1989). A brief summary of the conditions for each enzyme assay is provided below:
PDE3: PDE3 partially purified from human platelets was used. The compounds were independently incubated with 13 μg PDE3 enzyme and 1.01 μM [^3H]cAMP+cAMP in Tris buffer pH 7.5 for 20 minutes at either 25° C. or 30° C. The reaction was terminated by boiling for 2 minutes, and the resulting AMP was converted to adenosine by addition of 10 mg/ml snake venom nucleotidase and further incubation at 30° C. for 10 minutes. Unhydrolyzed cAMP was bound to AGI-X2 resin, and the remaining [^3H]adenosine in the aqueous phase was quantitated by scintillation counting.

The mark [4] stands for this setting: 100 μM compound, 30° C., 1% DMSO vehicle.
Where [5] appears, read: varying concentrations 300-1 μM.

T3 sequence (Q14432 whole entry): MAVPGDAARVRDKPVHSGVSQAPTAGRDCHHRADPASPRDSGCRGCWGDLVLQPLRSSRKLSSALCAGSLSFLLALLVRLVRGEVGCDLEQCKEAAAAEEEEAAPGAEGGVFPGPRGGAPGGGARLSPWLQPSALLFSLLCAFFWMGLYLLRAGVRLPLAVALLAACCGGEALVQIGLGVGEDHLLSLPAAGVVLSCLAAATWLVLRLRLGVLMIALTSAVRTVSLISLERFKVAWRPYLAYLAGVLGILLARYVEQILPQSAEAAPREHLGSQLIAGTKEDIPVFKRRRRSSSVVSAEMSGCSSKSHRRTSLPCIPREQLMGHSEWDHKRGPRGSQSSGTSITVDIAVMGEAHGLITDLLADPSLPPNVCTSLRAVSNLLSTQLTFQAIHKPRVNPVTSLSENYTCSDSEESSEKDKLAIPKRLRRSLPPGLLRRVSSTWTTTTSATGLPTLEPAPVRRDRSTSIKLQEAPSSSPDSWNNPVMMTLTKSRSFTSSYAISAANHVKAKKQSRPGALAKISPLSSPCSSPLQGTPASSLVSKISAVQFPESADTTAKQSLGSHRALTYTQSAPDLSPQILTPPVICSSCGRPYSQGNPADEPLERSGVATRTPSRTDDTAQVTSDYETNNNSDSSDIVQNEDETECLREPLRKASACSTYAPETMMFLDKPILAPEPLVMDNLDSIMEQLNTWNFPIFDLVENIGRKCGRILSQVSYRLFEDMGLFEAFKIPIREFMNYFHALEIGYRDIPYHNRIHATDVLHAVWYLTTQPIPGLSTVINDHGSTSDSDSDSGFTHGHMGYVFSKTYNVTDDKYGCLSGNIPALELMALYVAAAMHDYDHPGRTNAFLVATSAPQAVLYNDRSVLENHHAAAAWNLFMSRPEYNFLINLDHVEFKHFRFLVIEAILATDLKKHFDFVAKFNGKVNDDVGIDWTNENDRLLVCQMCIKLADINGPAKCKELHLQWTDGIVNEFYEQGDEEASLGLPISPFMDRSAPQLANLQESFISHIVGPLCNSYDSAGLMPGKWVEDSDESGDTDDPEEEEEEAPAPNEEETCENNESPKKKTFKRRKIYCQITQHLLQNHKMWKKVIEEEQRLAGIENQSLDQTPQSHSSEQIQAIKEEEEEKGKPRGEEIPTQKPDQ
T1 sequence (P14100 1-514 isoform P14100-2): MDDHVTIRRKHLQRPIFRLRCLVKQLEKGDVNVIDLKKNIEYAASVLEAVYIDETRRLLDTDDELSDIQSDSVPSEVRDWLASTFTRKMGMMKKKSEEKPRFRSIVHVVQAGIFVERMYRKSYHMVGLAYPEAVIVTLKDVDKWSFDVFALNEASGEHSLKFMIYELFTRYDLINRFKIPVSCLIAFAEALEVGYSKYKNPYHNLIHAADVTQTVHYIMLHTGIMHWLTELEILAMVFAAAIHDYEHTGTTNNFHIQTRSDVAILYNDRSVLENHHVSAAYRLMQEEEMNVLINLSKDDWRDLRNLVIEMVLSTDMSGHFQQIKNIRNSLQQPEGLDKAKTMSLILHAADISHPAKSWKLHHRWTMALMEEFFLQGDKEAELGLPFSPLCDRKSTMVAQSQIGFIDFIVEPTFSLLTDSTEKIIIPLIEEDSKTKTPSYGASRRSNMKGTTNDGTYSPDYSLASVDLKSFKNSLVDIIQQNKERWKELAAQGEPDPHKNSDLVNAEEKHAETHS
T2 sequence (O00408 whole entry): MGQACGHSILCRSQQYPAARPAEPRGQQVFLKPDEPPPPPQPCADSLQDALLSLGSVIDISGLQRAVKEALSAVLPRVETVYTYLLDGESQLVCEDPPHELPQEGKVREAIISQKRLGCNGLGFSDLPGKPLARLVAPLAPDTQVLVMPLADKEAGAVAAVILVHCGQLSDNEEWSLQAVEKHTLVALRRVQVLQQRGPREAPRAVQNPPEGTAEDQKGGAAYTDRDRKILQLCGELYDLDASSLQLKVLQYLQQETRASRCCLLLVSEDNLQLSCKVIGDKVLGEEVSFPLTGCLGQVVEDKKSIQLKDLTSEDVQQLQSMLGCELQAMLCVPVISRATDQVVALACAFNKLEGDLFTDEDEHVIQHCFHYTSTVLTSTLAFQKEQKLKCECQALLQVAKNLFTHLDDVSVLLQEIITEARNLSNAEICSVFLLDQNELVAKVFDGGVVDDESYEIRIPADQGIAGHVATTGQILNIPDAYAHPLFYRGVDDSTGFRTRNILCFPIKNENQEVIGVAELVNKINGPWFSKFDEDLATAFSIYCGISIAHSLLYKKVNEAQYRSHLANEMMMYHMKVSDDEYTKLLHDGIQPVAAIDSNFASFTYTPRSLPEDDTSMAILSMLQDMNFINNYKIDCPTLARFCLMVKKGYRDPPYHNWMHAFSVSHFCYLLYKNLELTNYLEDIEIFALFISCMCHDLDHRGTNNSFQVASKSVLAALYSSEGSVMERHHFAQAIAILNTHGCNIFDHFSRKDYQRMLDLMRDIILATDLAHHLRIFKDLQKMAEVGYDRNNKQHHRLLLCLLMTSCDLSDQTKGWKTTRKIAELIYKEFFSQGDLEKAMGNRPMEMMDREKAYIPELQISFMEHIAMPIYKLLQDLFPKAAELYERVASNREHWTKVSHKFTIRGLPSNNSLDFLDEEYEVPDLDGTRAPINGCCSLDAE

As to `Cn1cc([S+]([O-])CCl)c(=O)c2ccc(F)cc21` (racemic) [monochloroflosequinan, 3-chloromethylsulfinyl-7-fluoro-1-methyl-4-quinolone], the “inhibition of PDE1” value in test [1] (setting [4]) is “Significant inhibition”. In addition, the values for the IC50 in test [1] (setting [5]), in test [2] (setting [5]) and in test [3] were 65.6 µM, more than 300 µM and 28.2 µM, respectively. Further, the “inhibition of PDE2” value in test [2] (setting [4]) is recorded as “Significant inhibition”. Besides, in test [3] (setting [4]), the “inhibition of PDE3” value is “Significant inhibition”.

As to `Cn1cc(S(=O)(=O)CCl)c(=O)c2ccc(F)cc21` [monochloroflosequinan sulfone, 3-chloromethylsulfonyl-7-fluoro-1-methyl-4-quinolone], in test [3] (100 μM compound, 25° C., 1% DMSO vehicle), the inhibition (in general, the drop in the measured response relative to a control, in per cent) at 100 µM was more than 50%. Further, in test [3], 95.9 µM corresponded to half-maximal inhibition (IC50).
